Literature values in paper PMC8086892 (Peptide science (Hoboken, N.J.), 2020).

How the values were obtained:
[1] = ref Orivel et al. [27]
[2] = ref Orivel et al. [27]; remark: listed apart in the source

In the case of Ponericin L2, the Antimicrobial activity [1] is listed as “broad spectrum antimicrobial activity” and the Hemolytic activity [2] is listed as “no detectable hemolytic activity”.
